Earlier results on 5 compounds are cited in patent EP1754488A1, “Methods and compositions for non-viral gene therapy for treatment of hyperproliferative diseases” (Introgen Therapeutics, Inc., priority 1999, dated 2000).

For one series, the system named is multiple myeloma. The conditions noted are these: oral administration.

SMILES strings stand for the structures. Structures can show the parent of a compound that is named as a salt. *1 amine or outer side, *2 acyl side, *3 side chain or, on linkers, in order; H or OH if unused. Where a SMILES comes first, the peptide text is derived from it. Bridges are numbered along the chain shown (N, C = ends). Roman numbers before positions name the chains, in order. [ ]: non-standard residue; d: D form. Actinocin(9to1) = Cc1c2oc3c(C)ccc(C(=O)[*:1])c3nc-2c(C(=O)[*:2])c(N)c1=O; NMeV = CN[C@H](C(=O)O)C(C)C; Sar = CNCC(=O)O

`Cc1c2oc3c(C)ccc(C(=O)N[C@@H]4C(=O)N[C@H](C(C)C)C(=O)N5CCC[C@H]5C(=O)N(C)CC(=O)N(C)[C@@H](C(C)C)C(=O)O[C@@H]4C)c3nc-2c(C(=O)N[C@@H]2C(=O)N[C@H](C(C)C)C(=O)N3CCC[C@H]3C(=O)N(C)CC(=O)N(C)[C@@H](C(C)C)C(=O)O[C@@H]2C)c(N)c1=O` [Actinomycin D] (I: T[dV]P[Sar][NMeV] / II: T[dV]P[Sar][NMeV]; ester I:1-I:C, II:1-II:C; linker I:N-II:N via Actinocin(9to1)): where the note is “in vivo”, the “excreted / detected intact in the urine” value is given as 10% and the “excreted intact into the bile” value is on record as “Half of the dose”.

Turning to `COc1cccc2c1C(=O)c1c(O)c3c(c(O)c1C2=O)C[C@@](O)(C(C)=O)C[C@@H]3O[C@H]1C[C@H](N)[C@H](O)[C@H](C)O1` [Daunorubicin, 5,12-Naphthacenedione, (8S-cis)-8-acetyl-10-[(3-amino-2,3,6-trideoxy-a-L-lyxo-hexanopyranosyl)oxy]-7,8,9,10-tetrahydro-6,8,11-trihydroxy-10-methoxy-, hydrochloride], the half-life of distribution (in vivo) is 0.75 h. As to `O=NN(CCCl)C(=O)NC1CCCCC1` [Lomustine, 1-(2-chloro-ethyl)-3-cyclohexyl-1 nitrosourea], the “radioactivity excreted in the form of degradation products within 24 hours” value (oral radioactive lomustine, 30 mg/m^2 to 100 mg/m^2) was “about half of the radioactivity”. For `N[C@@H](Cc1ccc(N(CCCl)CCCl)cc1)C(=O)O` [Melphalan, 4-[bis(2-chloroethyl)amino]-L-phenylalanine], the “patients showing a favorable response” value in the series with multiple myeloma is reported as “about one third to one half of the patients”. As to `CC[C@]1(O)C[C@@H]2CN(CCc3c([nH]c4ccccc34)[C@@](C(=O)OC)(c3cc4c(cc3OC)N(C)[C@H]3[C@@](O)(C(=O)OC)[C@H](OC(C)=O)[C@]5(CC)C=CCN6CC[C@]43[C@@H]65)C2)C1` [Vinblastine], under “in vivo”, the “excreted / detected intact in the urine” value was “Approximately 15%”. In addition, where the note is “intravenous injection”, the “half-life of disappearance from plasma after distribution (first)” value is “approximately 1 hours” and the “half-life of disappearance from plasma after distribution (second)” value was approximately 72000 s.
